Measured values reported in BigSolDB 2.1.

COC(=O)Nc1nc2ccccc2[nH]1
solubility (mole fraction)
Conditions	278.15 K	283.15 K	288.15 K	293.15 K	298.15 K	303.15 K	308.15 K	313.15 K	318.15 K
in DMF	0.000786	0.000861	0.000931	0.00101	0.0011	0.00119	0.00128	0.00138	0.00148
in ethanol	8.29e-06	1.14e-05	1.66e-05	2.28e-05	3.16e-05	4.28e-05	5.74e-05	7.63e-05	9.98e-05
in methanol	3.23e-05	4.07e-05	5.29e-05	6.59e-05	7.95e-05	9.95e-05	0.000121	0.000147	0.000176
in n-propanol	3.28e-06	4.97e-06	8.18e-06	1.24e-05	1.85e-05	2.73e-05	4.04e-05	5.82e-05	8.34e-05
in water	3.3e-07	4e-07	4.91e-07	6e-07	7.35e-07	8.59e-07	1.02e-06	1.21e-06	1.43e-06
